Here are results for 14 compounds from patent US8871948B2, “(Aza)indole derivative substituted in position 5, pharmaceutical composition comprising it, intermediate compounds and preparation process therefor” (Aziende Chimiche Riunite Angelini Francesco A.C.R.A.F.S.p.A., priority 2007, dated 2014).

Bounds are passed on as bounds.

Assay [1] deals with production of PGF2α in human pulmonary adenocarcinoma cell line A549. In words: Inhibition of PGF2α production in IL-1β-stimulated A549 cells (EIA). The format is cell-based. The following applies: for IC50: IL-1β stimulated, read-out: pIC50 PGF2α (converted). An excerpt: (§1) The test used makes it possible to evaluate the inhibitory capacity of the test compounds on the production of PGE2 and the selectivity relative to the production of PGF2α. The human pulmonary adenocarcinoma cell line A549 was used, which is particularly sensitive to stimulation with proinflammatory cytokines, for instance IL-1β, and, in response to this stimulation, is particularly active in the production and release of two prostanoids: PGE2 and PGF2α (Thoren S. Jakobsson P-J, 2000).
(§2) The cells were stimulated with IL-1β (10 ng/ml) and simultaneously treated with the test compound for 22 hours in a suitable culture medium (DMEM Dulbecco's Modified Eagles Medium) enriched with 5% fetal calf serum and L-glutamine (4 mM final) in an incubator at 37° C. and with a CO2 concentration of 5%.
(§3) At the end of the incubation, the amount of PGE2 and PGF2α produced and released into the supernatant were assayed using an EIA kit (produced and sold by Cayman Chemicals, Ann Arbor, Mich., USA).
(§4) The comparative compound used was indomethacin at a concentration of 10 nM (Sigma-Aldrich), which is a non-steroidal anti-inflammatory drug that inhibits in equal measure both PGE2 and PGF2α.
(§5) For illustrative purposes, Table 3 collates the pIC50 values of a number of compounds of the invention, where pIC50 represents the negative logarithm of the IC50, which, in turn, represents the concentration of compound that inhibits the production of PGE2 or PGF2α by 50% relative to cells that are stimulated but not treated with the same compound.

In assay [2] the test system is production of PGE2 in human pulmonary adenocarcinoma cell line A549 (mPGES-1). In words: Inhibition of PGE2 production in IL-1β-stimulated A549 cells (EIA). The format is cell-based. The following applies: for IC50: IL-1β stimulated, read-out: pIC50 PGE2 (converted).
Text: as §1, §2, §3, §4, §5

Assay [3] concerns acetic acid-induced stretching in mice. In words: Acetic acid-induced stretching in mice. The following applies: female CD-1 mice; for N° of stretches: 20 minutes after acetic acid; for % inhibition (stretches): vs vehicle (MTC). Format: in vivo. How it is done:
The test compound was evaluated in the model of acetic acid-induced stretching in mice (Stock J. L. et al., J Clin Inv 2001, 107: 325-331). This test makes it possible to evaluate the antinociceptive activity of the compounds of the invention in a model of inflammatory pain.
Female CD-1 mice weighing 25-30 g were used for the test. […] The control animals were treated with the vehicle alone (MTC) via the same route.
30 minutes after the treatment, the animals received an intraperitoneal injection of acetic acid (0.7 v/v in physiological solution, 16 μl/g of body weight) in order to induce inflammatory pain and to check the effects of the test compound on the nociceptive response.
Immediately after the administration of acetic acid and for the following 20 minutes, the number of stretches, which represents the parameter for evaluation of the nociceptive response, was measured.

The subject of assay [4] is production of PGE2 in human lymphoma cell line U-937 (cPGES). In words: Inhibition of PGE2 production in U-937 cells (selectivity between isoforms of PGES). Format: cell-based. The following applies: basal conditions. The text has this: The test used makes it possible to evaluate the capacity of the compounds of the invention to inhibit the production of PGE2 in a human lymphoma cell line U-937 that preferentially expresses an enzymatic isoform (cPGES), which is responsible for the production of PGE2 under basal conditions, in the absence of pro-inflammatory stimuli. This enzymatic form is different from the one predominantly expressed in the A549 cells (mPGES-1) after a pro-inflammatory stimulus.
The absence of inhibitory activity on PGE2 in this cell model ensures the selectivity of the compound compared with the enzymatic form responsible for the production of PGE2 in the presence of inflammatory stimuli.
The reference compound used was indomethacin at a concentration of 10 nM.

The mark [5] stands for this setting: 10 nM, IL-1β 10 ng/ml, 22 hours.

What is called inhibition is the share of the control response that was lost under treatment. A lower inhibition goes with a response near the control. Consider `CCn1c(-c2ccc(C)cc2)cc2cc(NC(=O)c3ccccc3Cl)cnc21` [Compound 1], for which the inhibition at 10 µM is less than 20% in assay [1] (IL-1β 10 ng/ml, 22 hours) and 59% in assay [2] (IL-1β 10 ng/ml, 22 hours).
For `CCOC(=O)CCCn1c(-c2ccccc2)cc2cc(NC(=O)c3ccccc3Cl)ccc21` [Compound 7], the inhibition at 10 µM is less than 20% in assay [1] (IL-1β 10 ng/ml, 22 hours) and 76% in assay [2] (IL-1β 10 ng/ml, 22 hours). In assay [2], the IC50 is 3980 nM.
For `CCn1c(C2CCCCC2)cc2cc(NC(=O)c3ccccc3Cl)ccc21` [Compound 10], the “N° of stretches” value in assay [3] (0.01 mg/kg intraperitoneally) is given as 47 ± 4.3; in assay [3] (0.1 mg/kg intraperitoneally), 34 ± 3.2; in assay [3] (1 mg/kg intraperitoneally) it was 33 ± 3.9; in assay [3] (10 mg/kg intraperitoneally), 21 ± 3.2. For the same compound, the “% inhibition (stretches)” value in assay [3] (0.01 mg/kg intraperitoneally) came to 5.9 ± 8.76%; in assay [3] (0.1 mg/kg intraperitoneally) it was 33.2 ± 6.16%; in assay [3] (1 mg/kg intraperitoneally) it was 33.6 ± 8.04%; in assay [3] (10 mg/kg intraperitoneally), 57.5 ± 6.57%. The inhibition at 10 µM in assay [4] was less than 20%; in assay [1] (IL-1β 10 ng/ml, 22 hours) it was less than 20%; in assay [2] (IL-1β 10 ng/ml, 22 hours) it was 78%. Moreover, in assay [2], the IC50 is 1580 nM.
For the compound `COCCn1c(-c2ccccc2)cc2cc(NC(=O)c3ccccc3Cl)ccc21` [Compound 12], the inhibition at 10 µM in assay [4] is less than 20%; in assay [1] (IL-1β 10 ng/ml, 22 hours), less than 20%; in assay [2] (IL-1β 10 ng/ml, 22 hours) it was 78%. The IC50 in assay [2] is 3160 nM.
On to `CC(=O)OCCCn1c(-c2ccccc2)cc2cc(NC(=O)c3ccccc3Cl)ccc21` [Compound 13], for which the inhibition at 10 µM in assay [4] was less than 20%; in assay [1] (IL-1β 10 ng/ml, 22 hours), less than 20%; in assay [2] (IL-1β 10 ng/ml, 22 hours) it was 61%. Also, the IC50 in assay [2] is 7940 nM.
As to `CS(=O)(=O)n1c(CCc2ccccc2)cc2cc(NC(=O)c3ccccc3Cl)ccc21` [Compound 21], the inhibition at 10 µM in assay [1] (IL-1β 10 ng/ml, 22 hours) was less than 20%; in assay [2] (IL-1β 10 ng/ml, 22 hours), 69%. The IC50 in assay [2] is 501 nM.
Take `CS(=O)(=O)n1c(-c2cccc(C(F)(F)F)c2)cc2cc(NC(=O)c3ccccc3Cl)ccc21` [Compound 22]: the inhibition at 10 µM in assay [4] is less than 20%; in assay [1] (IL-1β 10 ng/ml, 22 hours) it was 44%; in assay [2] (IL-1β 10 ng/ml, 22 hours) it was 94%. The IC50 in assay [1] is 25.1 µM; in assay [2], 1580 nM.
As for `CCn1c(CCc2ccccc2)cc2cc(NC(=O)c3ccccc3Cl)ccc21` [Compound 33], the inhibition at 10 µM in assay [1] (IL-1β 10 ng/ml, 22 hours) was less than 20%; in assay [2] (IL-1β 10 ng/ml, 22 hours), 41%.
For the compound `CCn1c(Cc2ccccc2)cc2cc(NC(=O)c3ccccc3Cl)ccc21` [Compound 34], the inhibition at 10 µM came out at 44% in assay [1] (IL-1β 10 ng/ml, 22 hours) and 83% in assay [2] (IL-1β 10 ng/ml, 22 hours). The IC50 in assay [2] is 2510 nM.
For the compound `O=C(Nc1ccc2c(c1)cc(C(=O)Nc1ccccc1)n2CCCO)c1ccccc1C(F)(F)F` [Compound 35], the inhibition at 10 µM in assay [1] (IL-1β 10 ng/ml, 22 hours) amounted to 13%; in assay [2] (IL-1β 10 ng/ml, 22 hours), 88%. Besides, the IC50 in assay [1] is 31.6 µM; in assay [2], 2510 nM.
Turning to `O=C(Nc1ccc2c(c1)cc(-c1ccc(F)cc1)n2CCO)c1c(Cl)cccc1Cl` [Compound 36], the inhibition at 10 µM in assay [1] (IL-1β 10 ng/ml, 22 hours) is less than 20%; in assay [2] (IL-1β 10 ng/ml, 22 hours), 40%. The IC50 in assay [2] is 50100 nM.
In the same order, the values of `O=C(Nc1ccc2c(c1)cc(-c1ccc(Cl)cc1)n2CCO)c1ccc(F)cc1C(F)(F)F` [Compound 37] are less than 20%, 73% and 6310 nM.
In the same order, the values of `O=C(Nc1ccc2c(c1)cc(-c1ccc(F)cc1)n2CCO)c1c(F)cccc1C(F)(F)F` [Compound 38] are less than 20%, 42% and 25100 nM.
On to `COc1ccc2c(c1)c(CC(=O)O)c(C)n2C(=O)c1ccc(Cl)cc1` [Indomethacin, indomethacin, reference compound], for which the inhibition at 0.01 µM in assay [4] (10 nM), in assay [1] (setting [5]) and in assay [2] (setting [5]) was 100% in each case. For the same compound, the IC50 in assay [1] is 0.00251 µM; in assay [2] it was 5.01 nM.
